According to patent publication US5821232A, “Synergistic therapeutic compositions and methods” (Pfizer Inc., priority 1995, dated 1998):

Experiments:
Male Hartley guinea pigs = experiment: Mean arterial pressure lowering in conscious sodium-depleted guinea pigs, i.v. dosing; type: in vivo, guinea pig; parameters: unit not given beside the values; settings: trapezoidal method
Protocol: Male Hartley guinea pigs weighing between 250 and 300 g were obtained from Charles River Laboratories, Lakeview, New Jersey. The guinea pigs were allowed to acclimate to their environment for at least two weeks. Then, they were placed on a low sodium diet (Purina Modified Guinea Pig Chow, no sodium added) for 14 days and were given injections of furosemide (Lasix® 2 mg/kg, i.m.) on three non-consecutive days. At least 24 hours prior to experimentation, the animals were anesthetized with xylazine (Rompune, 10 mg/kg, s.c.) and ketamine (Vetalar®, 80 mg/kg, i.m.) and, using aseptic technique, cannulae (PE-50) were implanted into the aorta via the right carotid artery for direct measurement of mean arterial pressure (MAP). Cannulae (PE-50) were also placed into the left jugular vein for intravenous compound administration. Both catheters were exteriorized at the intrascapular region of the animal's back and flushed with a heparinized dextrose solution. To prevent the formation of clots, each cannula was filled with heparin at a concentration of 1000 units/ml. After surgery, an antibacterial, trimethoprim/sulfamethoxazole (Di-Trim®, 30 mg/kg, s.c.), was given to the animals. The animals were allowed to recover with water and no-sodium chow administered ad libitum. On the day of the experiment, each guinea pig was given an additional injection of furosemide (6 mg/kg, i.m.) to accelerate sodium loss and was placed in a sound-proof, ventilated box with one-way glass for observation. Mean arterial pressure was monitored with a Statham 23DB strain gauge pressure transducer previously calibrated using a mercury manometer. The arterial pressure waveform and derived heart rate were continuously recorded on a Grass Model 7D oscillograph. Arterial pressure waveform samples were obtained approximately every 20 seconds using an IBM PS/2 model 30 computer equipped with a custom algorithm designed to calculate mean arterial pressure from the integrated waveform. Values were obtained for a period of at least one hour prior to and 2 hours (usually 4 hours) after dosing. The test compounds were infused intravenously followed by a 250 μl flush with heparinized dextrose solution.
Dose response curves for the renin inhibitor (RI) (0.3 to 3.0 mg/kg, i.v.) and captopril (0.03 to 1.0 mg/kg, i.v.) were obtained (n =4 to 8) in order to quantitate baseline responses to each drug. In experiments where the renin inhibitor and captopril were co-administered, the renin inhibitor was given first immediately followed by captopril. Doses of renin inhibitor and angiotensin converting enzyme inhibitor, when given together, were chosen on the basis of causing submaximal hypotensive effects. Therefore, the contributory effect of each drug could be quantitated by integration and compared to the expected effect to determine whether additive or synergistic responses had occurred.
Employing the procedure described above, the changes in mean arterial pressure (AMAP) for the renin inhibitor (RI), the ACE inhibitor (captopril) and the renin inhibitor (RI), plus the ACE inhibitor (captopril) were obtained for various doses and are shown in Table I, below. The AOC-MAP is the area over the dose response curve for each dose calculated using the trapezoidal method.
The data in Table I were obtained by averaging the A MAP of all animals for each dose prior to calculating the AOC-MAP. When the data contained in Table I was reviewed for the purpose of calculating the AOC-MAP by averaging the area over the dose response curve for each animal per dose, it was discovered that the AOC-MAP for 0.5 mg/kg RI plus 0.05 mg/kg captopril inadvertently reflected the data based on only three of the six subject test animals. Shown below in Table II are the AOC-MAP data for the experiments reported in Table I, which data is now the result of determining the area over the dose response curve for each animal per dose and averaging the AOC-MAP, as well as determining the standard deviation. […]

[1] = Oldham et al., J. Cardiovasc. Pharmacol. 6: 672-677 (1984); cited from earlier work
[2] = Table III, 0.3 mg/kg i.v., average of area per animal
[3] = Table III, 1.0 mg/kg i.v., average of area per animal
[4] = Table I, 0.3 mg/kg i.v., area over curve from MAP change averaged over all animals per dose
[5] = Table I, 1.0 mg/kg i.v., area over curve from MAP change averaged over all animals per dose
[6] = Table II, 0.3 mg/kg i.v., average of area per animal (± standard deviation)
[7] = Table II, 1.0 mg/kg i.v., average of area per animal (± standard deviation)

Compound	AOC-MAP (Male Hartley guinea pigs; [2])	AOC-MAP (Male Hartley guinea pigs; [3])	AOC-MAP (Male Hartley guinea pigs; Table III, 3.0 mg/kg i.v., average of area per animal)	hypotensive effect of captopril injection during H77 infusion [1]	AOC-MAP (Male Hartley guinea pigs; Table I, 0.03 mg/kg i.v., area over curve from MAP change averaged over all animals per dose)	AOC-MAP (Male Hartley guinea pigs; Table I, 0.10 mg/kg i.v., area over curve from MAP change averaged over all animals per dose)	AOC-MAP (Male Hartley guinea pigs; [4])	AOC-MAP (Male Hartley guinea pigs; [5])	AOC-MAP (Male Hartley guinea pigs; Table II, 0.03 mg/kg i.v., average of area per animal (± standard deviation))	AOC-MAP (Male Hartley guinea pigs; Table II, 0.10 mg/kg i.v., average of area per animal (± standard deviation))	AOC-MAP (Male Hartley guinea pigs; [6])	AOC-MAP (Male Hartley guinea pigs; [7])	AOC-MAP (Male Hartley guinea pigs; Table III, 0.03 mg/kg i.v., average of area per animal)	AOC-MAP (Male Hartley guinea pigs; Table III, 0.10 mg/kg i.v., average of area per animal)	AOC-MAP (Male Hartley guinea pigs; Table I, 3.0 mg/kg i.v., area over curve from MAP change averaged over all animals per dose)	AOC-MAP (Male Hartley guinea pigs; Table II, 3.0 mg/kg i.v., average of area per animal (± standard deviation))
CCCCc1nc(Cl)c(CO)n1Cc1ccc(-c2ccccc2-c2nn[nH]n2)cc1 [Dup 753]	-125 (±31)	-549 (±96)	-1575 (±281)													
C[C@H](CS)C(=O)N1CCC[C@H]1C(=O)O [captopril]	-826 (±128)	-3272 (±350)		small additional hypotensive effect	-99	-289	-1263	-3272	-96 (±16)	-283 (±24)	-1036 (±145)	-3272 (±350)	-96 (±16)	-269 (±18)		
[alpha-R[alpha-R*, beta-S*(S*,S*)]-alpha-hydroxy-beta-[[2-[[2 -(4-morpholin-1-carboxamido)-1-oxo-3 -phenylpropyllaminol-3 -methylthio-l-oxo-propyl]amino]-cyclohexanebutanoic acid, isopropyl ester [RI]							-256	-496			-310 (±47)	-568 (±158)			-1829	-1990 (±408)
